Measured values: patent US11072588B2, “Barbituric acid derivatives comprising cationic and lipophilic groups” (UNIVERSITETET I TROMSØ—NORGES ARKTISKE UNIVERSITET, priority 2017, dated 2021)
Converted amounts (≈) assume the structure as drawn.

How the values were obtained:
[1] = tested on: panel of 30 multi-resistant clinical isolates of Gram-positive and Gram-negative bacteria; assay: MIC screening, ranges over the panel of clinical isolates; assay type: cell-based; details: read-out: MIC values against S. aurues, E. faecium and E. coli
Experimental: (§1) Working solutions of the test derivatives were prepared with up to 100% DMSO and stored at −20° C. If necessary, the solutions were heated to 40-80° C. before testing to facilitate complete dissolution. Double-distilled water was used in all dilutions prepared. […] A microdilution susceptibility test was used for MIC determination according to Clinical and Laboratory Standards Institute, “Methods for Dilution Antimicrobial Sisceptibility Tests for Bacteria That Graw Aerobically”, Approved Standard M07-A9, edition 2012, with modifications as described by Igumnova et al (Bioorg Med Chem, 2016, 24 (22), 5884-5894).
(§2) Briefly, the bacterial inoculum was adjusted to approximately 2.5-3×10^4 cells/mL in Mueller-Hinton broth (MHB, Difco Laboratories, USA), and incubated in a ratio of 1:1 with test derivatives in polystyrene 96-well flat-bottom microplates (NUNC, Roskilde, Denmark). Positive growth control (without test derivatives) and negative control (without bacteria) were included. The reference antibiotic was oxytetracycline hydrochloride (Sigma Aldrich, Saint Louis, Mo., USA). The microplates were incubated in an EnVision microplate reader (Perkin-Elmer, Turku, Finland) placed in an incubator set to 35° C. for 48 h. The MIC value was defined as the lowest concentration of derivative resulting in no bacterial growth as determined by OD600 measurement. All derivatives were tested in three parallels.
(§3) The MIC was determined as explained above with some exceptions; working solutions of test derivatives were prepared from concentrated DMSO stocks stored at room temperature, the density of the bacterial inoculum was increased 40× to 1-1.2×10^6 cells/mL, enterococci were incubated in Brain Heart Infusion broth (BHIB, Difco Laboratories, USA), the microplates were incubated for 24 h, and the derivatives were tested in four parallels.

[2] = tested on: Staphylococcus aureus ATCC 9144; assay: MIC assay, antibiotic susceptible reference strain; assay type: cell-based; details: Staphylococcus aureus, ATCC9144, read-out: Antimicrobial activity (MIC) S. a
Experimental: as §1, §2

[3] = tested on: Corynebacterium glutamicum ATCC 13032; assay: MIC assay, antibiotic susceptible reference strain; assay type: cell-based; details: Corynebacterium glutamicum, ATCC13032, read-out: Antimicrobial activity (MIC) C. g
Experimental: as §1, §2

[4] = tested on: Pseudomonas aeruginosa PA01, DSM 19880 (ATCC 15692); assay: MIC assay, antibiotic susceptible reference strain; assay type: cell-based; details: Pseudomonas aeruginosa, read-out: Antimicrobial activity (MIC) P. a
Experimental: as §1, §2

[5] = tested on: Escherichia coli ATCC 25922; assay: MIC assay, antibiotic susceptible reference strain; assay type: cell-based; details: Escherichia coli, ATCC25922, read-out: Antimicrobial activity (MIC) E. c
Experimental: as §1, §2

A. baumanii K63-58 = assay: MIC, multi-resistant clinical isolate; assay type: cell-based, Acinetobacter baumannii; details: A. baumanii K63-58, resistant to colistin; for MIC: Acinetobacter baumannii, K6358, 24 h, read-out: Antimicrobial activity (MIC); for selectivity index (EC50/MIC): RBC EC50 / MIC
[6] = tested on: human metastatic melanoma (A2058, ATCC CRL-11147) cells; assay: Anti-cancer activity against A2058 cells; assay type: cell-based; details: A2058, read-out: Anti-cancer IC50
Experimental: Cytotoxicity of the test compounds was evaluated after 72 hour exposure to human metastatic melanoma (A2058, ATCC CRL-11147) cells.
A2058 cells were grown overnight (2,000 cells/well), and then incubated with the test compounds (range of concentrations) diluted in MEM Earle's supplemented with gentamycin (10 μg/mL), non-essential amino acids (1%), sodium pyruvate (1 mM), L-alanyl-Lglutamine (2 mM), but without FBS (total volume was 100 μl) for […]. Ten μL of CellTiter 96® AQueous One Solution Reagent (Promega, Madison, Wis., USA) was added, and the plates were then further incubated for 1 hour.
Absorbance was measured at 485 nm in a DTX 880 Multimode Detector. Results were calculated as % survival compared to negative (assay media) and positive (Triton X-100; Sigma-Aldrich) controls.

E. coli 50579417 = assay: MIC, multi-resistant clinical isolate; assay type: cell-based, Escherichia coli; details: for MIC: Escherichia coli, read-out: Antimicrobial activity (MIC); for selectivity index (EC50/MIC): RBC EC50 / MIC
Experimental: as §1, §2, §3

E. coli 50676002 = assay: MIC, multi-resistant clinical isolate; assay type: cell-based, Escherichia coli; details: for MIC: Escherichia coli, 50676002, read-out: Antimicrobial activity (MIC); for selectivity index (EC50/MIC): RBC EC50 / MIC, E. coli 50676002
Experimental: as §1, §2, §3

E. coli 50639799 = assay: MIC, multi-resistant clinical isolate; assay type: cell-based, Escherichia coli; details: for MIC: Escherichia coli, read-out: Antimicrobial activity (MIC); for selectivity index (EC50/MIC): RBC EC50 / MIC
Experimental: as §1, §2, §3

E. coli 50857972 = assay: MIC, multi-resistant clinical isolate; assay type: cell-based, Escherichia coli; details: for MIC: Escherichia coli, read-out: Antimicrobial activity (MIC); for selectivity index (EC50/MIC): RBC EC50 / MIC
Experimental: as §1, §2, §3

E. coli 50739822 = assay: MIC, multi-resistant clinical isolate; assay type: cell-based, Escherichia coli; details: for MIC: Escherichia coli, read-out: Antimicrobial activity (MIC); for selectivity index (EC50/MIC): RBC EC50 / MIC
Experimental: as §1, §2, §3

P. aeruginosa 50692520 = assay: MIC, multi-resistant clinical isolate; assay type: cell-based, Pseudomonas aeruginosa; details: for MIC: Pseudomonas aeruginosa, read-out: Antimicrobial activity (MIC); for selectivity index (EC50/MIC): RBC EC50 / MIC
Experimental: as §1, §2, §3

P. aeruginosa K34-7 = assay: MIC, multi-resistant clinical isolate; assay type: cell-based, Pseudomonas aeruginosa; details: for MIC: Pseudomonas aeruginosa, K347, read-out: Antimicrobial activity (MIC); for selectivity index (EC50/MIC): RBC EC50 / MIC, P. aeruginosa K34-7
Experimental: as §1, §2, §3

P. aeruginosa K34-73 = assay: MIC, multi-resistant clinical isolate; assay type: cell-based, Pseudomonas aeruginosa; details: for MIC: Pseudomonas aeruginosa, K3473, read-out: Antimicrobial activity (MIC); for selectivity index (EC50/MIC): RBC EC50 / MIC, P. aeruginosa K34-73
Experimental: as §1, §2, §3

P. aeruginosa 50692172 = assay: MIC, multi-resistant clinical isolate; assay type: cell-based, Pseudomonas aeruginosa; details: for MIC: Pseudomonas aeruginosa, read-out: Antimicrobial activity (MIC); for selectivity index (EC50/MIC): RBC EC50 / MIC
Experimental: as §1, §2, §3

P. aeruginosa K44-24 = assay: MIC, multi-resistant clinical isolate; assay type: cell-based, Pseudomonas aeruginosa; details: for MIC: Pseudomonas aeruginosa, K4424, read-out: Antimicrobial activity (MIC); for selectivity index (EC50/MIC): RBC EC50 / MIC
Experimental: as §1, §2, §3

K. pneumoniae 50667959 = assay: MIC, multi-resistant clinical isolate; assay type: cell-based, Klebsiella pneumoniae; details: for MIC: Klebsiella pneumoniae, read-out: Antimicrobial activity (MIC); for selectivity index (EC50/MIC): RBC EC50 / MIC
Experimental: as §1, §2, §3

K. pneumoniae K66-45 = assay: MIC, multi-resistant clinical isolate; assay type: cell-based, Klebsiella pneumoniae; details: for MIC: Klebsiella pneumoniae, K6645, read-out: Antimicrobial activity (MIC); for selectivity index (EC50/MIC): RBC EC50 / MIC, K. pneumoniae K66-45
Experimental: as §1, §2, §3

K. pneumoniae K47-25 = assay: MIC, multi-resistant clinical isolate; assay type: cell-based, Klebsiella pneumoniae; details: for MIC: Klebsiella pneumoniae, K4725, 24 h, read-out: Antimicrobial activity (MIC)
Experimental: as §1, §2, §3

Structure (SMILES)	MIC [2]	MIC [3]	MIC [4]	MIC [5]	MIC (A. baumanii K63-58)	selectivity index (EC50/MIC) (A. baumanii K63-58)	MIC (E. coli 50579417)	selectivity index (EC50/MIC) (E. coli 50579417)	MIC (E. coli 50676002)	selectivity index (EC50/MIC) (E. coli 50676002)	MIC (E. coli 50639799)	selectivity index (EC50/MIC) (E. coli 50639799)	MIC (E. coli 50857972)	selectivity index (EC50/MIC) (E. coli 50857972)	MIC (E. coli 50739822)	selectivity index (EC50/MIC) (E. coli 50739822)	MIC (P. aeruginosa 50692520)	selectivity index (EC50/MIC) (P. aeruginosa 50692520)	MIC (P. aeruginosa K34-7)	selectivity index (EC50/MIC) (P. aeruginosa K34-7)	other results
NCCCCN1C(=O)N(CCCCN)C(=O)C(Cc2cc(Br)cc(Br)c2)(Cc2cc(Br)cc(Br)c2)C1=O [7(ii)]	4 µg/mL (≈ 5.22 µM)	1 µg/mL (≈ 1.31 µM)	8 µg/mL (≈ 10.4 µM)	4 µg/mL (≈ 5.22 µM)	16 µg/mL (≈ 20.9 µM)	(5)	8 µg/mL (≈ 10.4 µM)	(10)	8 µg/mL (≈ 10.4 µM)	(10)	8 µg/mL (≈ 10.4 µM)	(10)	8 µg/mL (≈ 10.4 µM)	(10)	8 µg/mL (≈ 10.4 µM)	(10)	16 µg/mL (≈ 20.9 µM)	(5)	16 µg/mL (≈ 20.9 µM)	(5)	MIC [1]: 4 to 8 µg/mL (≈ 5.22 to 10.4 µM); IC50 [6]: 1 µg/mL (≈ 1.31 µM); MIC (P. aeruginosa K34-73): 16 µg/mL (≈ 20.9 µM); selectivity index (EC50/MIC) (P. aeruginosa K34-73): (5); MIC (P. aeruginosa 50692172): 16 µg/mL (≈ 20.9 µM); selectivity index (EC50/MIC) (P. aeruginosa 50692172): (5); MIC (P. aeruginosa K44-24): 16 µg/mL (≈ 20.9 µM); selectivity index (EC50/MIC) (P. aeruginosa K44-24): (5); MIC (K. pneumoniae 50667959): 16 µg/mL (≈ 20.9 µM); selectivity index (EC50/MIC) (K. pneumoniae 50667959): (5); MIC (K. pneumoniae K66-45): 16 µg/mL (≈ 20.9 µM); selectivity index (EC50/MIC) (K. pneumoniae K66-45): (5); MIC (K. pneumoniae K47-25): 16 µg/mL (≈ 20.9 µM); selectivity index (EC50/MIC) (K. pneumoniae K47-25; RBC EC50 / MIC, K. pneumoniae K47-25, resistant to colistin): (5)
NCCCCN1C(=O)N(CCCCN)C(=O)C(Cc2cc(C(F)(F)F)cc(C(F)(F)F)c2)(Cc2cc(C(F)(F)F)cc(C(F)(F)F)c2)C1=O [7(vi)]	8 µg/mL (≈ 11.1 µM)	1 µg/mL (≈ 1.38 µM)	8 µg/mL (≈ 11.1 µM)	8 µg/mL (≈ 11.1 µM)	32 µg/mL (≈ 44.3 µM)	(6)	16 µg/mL (≈ 22.1 µM)	(11)	16 µg/mL (≈ 22.1 µM)	(11)	16 µg/mL (≈ 22.1 µM)	(11)	8 µg/mL (≈ 11.1 µM)	(23)	16 µg/mL (≈ 22.1 µM)	(11)	32 µg/mL (≈ 44.3 µM)	(6)	32 µg/mL (≈ 44.3 µM)	(6)	MIC (P. aeruginosa K34-73): 32 µg/mL (≈ 44.3 µM); selectivity index (EC50/MIC) (P. aeruginosa K34-73): (6); MIC (P. aeruginosa 50692172): 32 µg/mL (≈ 44.3 µM); selectivity index (EC50/MIC) (P. aeruginosa 50692172): (6); MIC (P. aeruginosa K44-24): 32 µg/mL (≈ 44.3 µM); selectivity index (EC50/MIC) (P. aeruginosa K44-24): (6); MIC (K. pneumoniae 50667959): 32 µg/mL (≈ 44.3 µM); selectivity index (EC50/MIC) (K. pneumoniae 50667959): (6); MIC (K. pneumoniae K66-45): 32 µg/mL (≈ 44.3 µM); selectivity index (EC50/MIC) (K. pneumoniae K66-45): (6); MIC (K. pneumoniae K47-25): > 32 µg/mL
